Laboratory results reported in patent publication US6465466B1, “Uses of indolo-2 [2,3b] -quinoxalines” (priority 1995, dated 2002).

Experiments:
[1] = system: regeneration of liver tissue; assay: In vivo toxicity: liver regeneration after partial hepatectomy (liver-somatic index); parameters: species or system rats
Procedure: The in vivo toxicity of B-220 was tested in rats. A portion of the liver was removed (partial hepatectomy, PH) by surgery and the regeneration of liver tissue was studied. The regeneration was measured as liver-somatic index (LSI), in other words, the relative liver weight in percent of the body weight.
AAF (2-acetylaminofluorene) is a very toxic substance which acts as a mito-inhibitor, i.e. inhibits cell division of normal liver cells.
The results are shown in FIG. 3 wherein LSI is plotted against days after partial hepatectomy.

bacterial strain TA 100 = assay: Ames test, mutagenicity of MMS and EMS with and without B-220; assay type: cell-based, Salmonella; settings: for mutagenicity of the mutagen alone (revertants/plate): TA 100, without B-220
Procedure: The following example illustrates the fact that compound B-220 reduces the mutagenicity of potent mutagens in the bacterial mutagenicity test, the “Ames test”. In the test the bacterial strain TA 100 was used. […] These mutagens were MMS=Methylmethanesulphonate and EMS=Ethylmethanesulphonate. The results of the experiments carried out are shown graphically in FIGS. 2a and 2b. In the Figures revertants/plate, is plotted against microgram MMS and EMS, respectively, plus 70 μg B-220.

test strain TA100 = assay: Ames test, mutagenic potential of the substances, test strain TA100; assay type: cell-based, Salmonella; settings: for anti-mutagenic potential (reduction of spontaneous background): TA100; for mutagenic potential (revertants/plate): TA100, with and without S9
From the text: This example illustrates the mutagenic potential in the bacterial mutagenicity test, “Ames test”, with test strain TA100, of B-220 (FIG. 1a) and 9-OH-B-220 (FIG. 1b). S9 indicates the presence […] or absence (−S9) of a cellular enzymatic fraction capable to metabolize the tested substances. The metabolic activation is a liver fraction containing enzymes needed in metabolism. In the Figures revertants/plate, an intensity measurement of mutagenic activity, is plotted against μg B-220 and μg 9-OH-B-220.

[2] = system: human cell cultures of phagocytes; assay: Luminol chemiluminescence in human phagocyte cultures; assay type: cell-based; settings: dose dependent; intracellular, also seen extracellular; same effect as salt and free base
From the text: In this test the effects of “B220” have been exposed to human cell cultures of phagocytes. Luminol reacts with the markers for oxidative stress, hydrogen peroxide or the superoxide ion, and generates light. […] “B220” has the same effect both in the form of salt and the free base.

[3] = Whole body gamma-irradiation of mice; assay type: in vivo
Procedure: Gamma-irradiation is a very potent agent which can induce oxidative stress, reduce body weight gain and shorten life span. In FIG. […] The human LD50 of gamma-irradiation os approximately 3 Gy.
“B220” was administered intra peritoneal in corn oil 24 and 3 h before the irradiation.
The body weight gain of each group is shown as percent of the body weight at the time of irradiation. A lower body weight gain is an indicator of a shorter life span in the long term perspective. Gamma-irradiation is a way to induce a premature aging which is also seen as gray fur in these mice.

[4] = system: 8-hydroxy-2'-deoxyguanosine (8-OH-dG); assay: 8-OH-dG formation in DNA after oral 2,7-dinitrofluorene; assay type: in vivo; settings: rats pre-treated with B220, 2,7-dNF orally
From the text: Oxidation of deoxyguanosine (dG), one of the bases in DNA, is an oxidative lesion of DNA related to oxidative stress. The reaction product between free radicals and dG is 8-hydroxy-2′-deoxyguanosine (8-OH-dG). This biomarker is a reaction product found in DNA, i.e. the oxidative stress is not only found as oxidants in the circulation or in the cytoplasm, but reaches the nucleus and reacts with DNA. In FIG. 8 results are shown when the urban air pollutant (result of incomplete combustion of fuels of vehicles) and carcinogen 2,7-dinitrofluorene (2,7-dNF) was administered orally to rats. In the metabolism, reactive intermediates were formed that oxidized dG to 8-OH-dG.

skin tumors = assay: Skin tumor model, DMBA initiation and TPA promotion; assay type: in vivo, mice
Procedure: The compounds used according to the present invention have been tested as regards the formation of tumors (skin tumors) for mice subjected to strong tumor initiating and strong tumor promotion conditions. […] Furthermore, if the administration of the compound used according to the present invention is terminated, the animals will develop the same number of tumors as in the positive control. This means that the original DNA injury remains and the tumor promoter which is administered continuously can give rise to a considerable development of tumors. Accordingly a compound used according to the present invention can stop the tumor process caused by potent tumor promoting agents in combination with potent tumor initiators.
This example illustrates a tumor model which is based on in vivo tumor initiation with one does of dimethylbenzanthracene (DMBA) where after, a potent tumor promoter […] (TPA) was administered twice a week. After a number of weeks the skin tumors can be detected and followed during the study, After approximately 100 days (A) the positive controls reached the maximum, where after the total number declines due to the behavior of the animals. […] After six months exposure of B-220+TPA in the B-220 group, B-220 was no longer administered (B).

CN(C)CCn1c2ccc(O)cc2c2nc3ccccc3nc21
melting point: 269 to 270 °C

CC(=O)Nc1ccc2c(c1)Cc1ccccc1-2 [AAF, 2-acetylaminofluorene, reference compound]
regeneration of liver tissue (liver-somatic index, LSI) ([1]; rats, days after partial hepatectomy): very slow

CCOS(C)(=O)=O [EMS, Ethylmethanesulphonate, reference compound]
mutagenicity of the mutagen alone (revertants/plate) (bacterial strain TA 100): strong mutagen

Cc1cc2nc3c4cc(O)ccc4n(CCN(C)C)c3nc2cc1C [Example 9-OH-B-220, 2,3-Dimethyl-6-(2-dimethylaminoethyl)-9-hydroxy-6H-indolo[2,3-b]-quinoxaline]
anti-mutagenic potential (reduction of spontaneous background) (test strain TA100): anti-mutagenic
mutagenic potential (revertants/plate) (test strain TA100): non-mutagenic

Cc1cc2nc3c4ccccc4n(CCN(C)C)c3nc2cc1C [Example B-220]
formation of hydrogen peroxide and superoxide ion generated by oxidase (chemiluminescence) [2]: down regulates and even eliminates
regeneration of liver tissue (liver-somatic index, LSI) ([1]; rat, in vivo): no difference from the controls
toxic effects in vivo ([1]; rat, in vivo): did not show any toxic effects
anti-mutagenic potential (reduction of spontaneous background) (test strain TA100): anti-mutagenic
mutagenic potential (revertants/plate) (test strain TA100): non-mutagenic
protective effect (life span) ([3]; 8 Gy, administration after irradiation): protective effect similar to pre-treatment
protective effect (increased life span) ([3]; 8 Gy, intra peritoneal in corn oil 24 and 3 h before irradiation): protective effect
protective effect (life span) ([3]; 14 Gy, intra peritoneal in corn oil 24 and 3 h before irradiation): no protective effect
body weight gain ([3]; lower doses, 1 and 6 Gy): increased body weight gain
oxidative stress (8-OH-dG in DNA) [4]: down-regulated to levels lower than the controls
mutagenicity of EMS when B-220 is added (bacterial strain TA 100; TA 100, EMS plus 70 μg B-220): reduced the mutagenicity but not as much as for MMS
mutagenicity of MMS when B-220 is added (bacterial strain TA 100; TA 100, MMS plus 70 μg B-220): the mutagenicity disappears
skin tumors (skin tumors; after six months of B-220+TPA): very slight increase in tumors
skin tumors after B-220 no longer administered (skin tumors; after six months, TPA continued, B-220 stopped): rapid increase of tumors
skin tumors (skin tumors; approximately 100 days, B-220 one hour before TPA, DMBA-initiated): no tumors at all
carcinogenicity (skin tumors; skin tumor model): not a carcinogen

COS(C)(=O)=O [MMS, Methylmethanesulphonate, reference compound]
mutagenicity of the mutagen alone (revertants/plate) (bacterial strain TA 100): strong mutagen
